Source: patent publication US8420676B2, “Oxazolidinone derivatives” (Dong-A Pharmaceuticals Co. Ltd., priority 2003, dated 2013)
Values after ≈ are worked out from the molar mass of the structure shown. Structures can show the parent of a compound that is named as a salt.

Columns and labels:
[1] = test system: methicillin resistant Staphylococcus aureus (MRSA); test: Assay for in vitro antibacterial activity, agar dilution (MRSA); settings: read-out: Minimum Inhibitory Concentration (MIC50) MRSA
[2] = test system: vancomycin resistant Enterococci (VRE); test: Assay for in vitro antibacterial activity, agar dilution (VRE); settings: Enterococcus, read-out: Minimum Inhibitory Concentration (MIC50) VRE
[3] = Assay for solubility in distilled water (turbidity by naked eye); assay type: physicochemical; settings: average of three runs; for solubility at 2 min: thermodynamic from solid
Method: The derivatives of the present invention were added to 200 μl of distilled water and then the solution was stirred for 2 minutes. The turbidity of the solution was watched through naked eye.
When the derivatives were not dissolved completely, 50 μl of distilled water was added to the solution and then the turbidity of the solution was assayed in the above manner to find a point of becoming transparent solution.
When 2 mg of the derivatives was first added to distilled water and completely dissolved so that the solution became transparent, 2 mg of the derivatives was added more to the solution and then state of the solution was watched. The derivatives of the present invention were added to the five times and then solubility of the solution was assayed for. The assay for solubility was carried out the three times repeatedly in the above method and the results were averaged.

MIC50 [1]	MIC50 [2]	SMILES	also measured
0.5 µg/mL (≈ 1.11 µM)	0.5 µg/mL (≈ 1.11 µM)	CC(=O)NC[C@H]1CN(c2ccc(-c3ccc(-c4nc(CC#N)cs4)cc3)c(F)c2)C(=O)O1 [Compound 31, (S)-3-(4-(4-(4-cyanomethylthiazol-2-yl)phenyl)-3-fluorophenyl)-2-oxo-5-oxazolidinylmethyl acetamide]	
0.5 µg/mL (≈ 1.22 µM)	1 µg/mL (≈ 2.44 µM)	N#CCc1csc(-c2ccc(-c3ccc(N4C[C@H](CO)OC4=O)cc3F)cc2)n1 [Compound 32, (R)-3-(4-(4-(4-cyanomethylthiazol-2-yl)phenyl)-3-fluorophenyl)-5-hydroxymethyl oxazolidin-2-one]	
2 µg/mL (≈ 5.2 µM)	2 µg/mL (≈ 5.2 µM)	COC[C@H]1CN(c2ccc(-c3ccc(-c4nnn(C)n4)nc3)c(F)c2)C(=O)O1 [Compound 33, (R)-3-(4-(2-(2-methyltetrazol-5-yl)pyridin-5-yl)-3-fluorophenyl)-5-methoxymethyl oxazolidin-2-one]	
0.5 µg/mL (≈ 1.11 µM)	0.5 µg/mL (≈ 1.11 µM)	O=C1O[C@@H](Cn2ccnn2)CN1c1ccc(-c2ccc(-c3nc(CO)cs3)cc2)c(F)c1 [Compound 36, (R)-3-(4-(4-(4-hydroxymethylthiazol-2-yl)phenyl)-3-fluorophenyl)-5-([1,2,3]triazol-1-yl)methyl oxazolidin-2-one]	
0.5 µg/mL (≈ 1.29 µM)	1 µg/mL (≈ 2.58 µM)	Cn1nnc(-c2ccc(-c3c(F)cc(N4C[C@H](CO)OC4=O)cc3F)cn2)n1 [Compound 38, (R)-3-(4-(2-(2-methyltetrazol-5-yl)pyridin-5-yl)-3,5-difluorophenyl)-5-hydroxymethyl oxazolidin-2-one]	
1 µg/mL (≈ 2.58 µM)	1 µg/mL (≈ 2.58 µM)	Cc1nnc(-c2ccc(-c3c(F)cc(N4C[C@H](CO)OC4=O)cc3F)cn2)o1 [Compound 39, (R)-3-(4-(2-(2-methyl-[1,3,4]oxadiazol-5-yl)pyridin-5-yl)-3,5-difluorophenyl)-5-hydroxymethyl oxazolidin-2-one]	
4 µg/mL (≈ 10.4 µM)	8 µg/mL (≈ 20.9 µM)	CNC[C@H]1CN(c2ccc(-c3ccc(-c4nnn(C)n4)nc3)c(F)c2)C(=O)O1 [Compound 41]	
		C[C@H](N)C(=O)OC[C@H]1CN(c2ccc(-c3ccc(-c4nnn(C)n4)nc3)c(F)c2)C(=O)O1 [Compound 42, (R)-3-(4-(2-(2-methyltetrazol-5-yl)pyridin-5-yl)-3-fluorophenyl)-5-(L-alanyloxy)methyl oxazolidin-2-one trifluoroacetic acid]	Solubility ([3]; listed as compound 42, trifluoroacetic acid): > 50 mg/mL; Solubility ([3]; trifluoroacetic acid): >50 mg/mL
		Cn1nnc(-c2ccc(-c3ccc(N4C[C@H](COC(=O)[C@@H]5CCCN5)OC4=O)cc3F)cn2)n1 [Compound 46, (R)-3-(4-(2-(2-methyltetrazol-5-yl)pyridin-5-yl)-3-fluorophenyl)-5-(L-prolinyloxy)methyl oxazolidin-2-one trifluoroacetic acid]	solubility at 2 min [3]: < 1.63 mg/mL
		Cn1nnc(-c2ccc(-c3ccc(N4C[C@H](COC(=O)CCN)OC4=O)cc3F)cn2)n1 [Compound 50, (R)-3-(4-(2-(2-methyltetrazol-5-yl)pyridin-5-yl)-3-fluorophenyl)-5-(β-alanyloxy)methyl oxazolidin-2-one hydrochloride]	Solubility ([3]; hydrochloride): 20.4 mg/mL
		Cc1nnc(-c2ccc(-c3ccc(N4C[C@H](COC(=O)[C@H](C)N)OC4=O)cc3F)cn2)o1 [Compound 51, (R)-3-(4-(2-(2-methyl-[1,3,4]oxadiazol-5-yl)pyridin-5-yl)-3-fluorophenyl)-5-(L-alanyloxy)methyl oxazolidin-2-one trifluoroacetic acid]	solubility at 2 min [3]: > 50 mg/mL
		Cc1nnc(-c2ccc(-c3ccc(N4C[C@H](COC(=O)[C@@H](N)C(C)C)OC4=O)cc3F)cn2)o1 [Compound 53, (R)-3-(4-(2-(2-methyl-[1,3,4]oxadiazol-5-yl)pyridin-5-yl)-3-fluorophenyl)-5-(L-valyloxy)methyl oxazolidin-2-one trifluoroacetic acid]	solubility at 2 min [3]: 30.3 mg/mL (≈ 64500 µM)
		Cc1nnc(-c2ccc(-c3ccc(N4C[C@H](COC(=O)[C@@H]5CCCN5)OC4=O)cc3F)cn2)o1 [Compound 55, (R)-3-(4-(2-(2-methyl-[1,3,4]oxadiazol-5-yl)pyridin-5-yl)-3-fluorophenyl)-5-(L-prolinyloxy)methyl oxazolidin-2-one trifluoroacetic acid]	solubility at 2 min [3]: 7.2 mg/mL (≈ 15400 µM)
		Cc1nnc(-c2ccc(-c3ccc(N4C[C@H](COC(=O)CCN)OC4=O)cc3F)cn2)o1 [Compound 57, (R)-3-(4-(2-(2-methyl-[1,3,4]oxadiazol-5-yl)pyridin-5-yl)-3-fluorophenyl)-5-(β-alanyloxy)methyl oxazolidin-2-one trifluoroacetic acid]	solubility at 2 min [3]: > 50 mg/mL
0.5 µg/mL (≈ 1.35 µM)	0.25 µg/mL (≈ 0.675 µM)	Cn1nnnc1-c1ccc(-c2ccc(N3C[C@H](CO)OC3=O)cc2F)cn1 [Compound 61, (R)-3-(4-(2-(1-methyltetrazol-5-yl)pyridin-5-yl)-3-fluorophenyl)-5-hydroxymethyl oxazolidin-2-one]	
		Cn1nnnc1-c1ccc(-c2ccc(N3C[C@H](COC(=O)CN)OC3=O)cc2F)cn1 [Compound 62, (R)-3-(4-(2-(1-methyltetrazol-5-yl)pyridin-5-yl)-3-fluorophenyl)-5-glycyloxymethyl oxazolidin-2-one trifluoroacetic acid]	solubility at 2 min [3]: 28 mg/mL (≈ 65500 µM)
		C[C@H](N)C(=O)OC[C@H]1CN(c2ccc(-c3ccc(-c4nnnn4C)nc3)c(F)c2)C(=O)O1 [Compound 64, (R)-3-(4-(2-(1-methyltetrazol-5-yl)pyridin-5-yl)-3-fluorophenyl)-5-(L-alanyloxy)methyl oxazolidin-2-one trifluoroacetic acid]	solubility at 2 min [3]: > 50 mg/mL
		CC(C)[C@H](N)C(=O)OC[C@H]1CN(c2ccc(-c3ccc(-c4nnnn4C)nc3)c(F)c2)C(=O)O1 [Compound 66, (R)-3-(4-(2-(1-methyltetrazol-5-yl)pyridin-5-yl)-3-fluorophenyl)-5-(L-valyloxy)methyl oxazolidin-2-one trifluoroacetic acid]	solubility at 2 min [3]: 4.7 mg/mL (≈ 10000 µM)
0.5 µg/mL (≈ 1.19 µM)	0.125 µg/mL (≈ 0.297 µM)	Cn1nnnc1-c1ccc(-c2ccc(N3C[C@H](Cn4ccnn4)OC3=O)cc2F)cn1 [Compound 71, (R)-3-(4-(2-(1-methyltetrazol-5-yl)pyridin-5-yl)-3-fluorophenyl)-5-([1,2,3]triazol-1-yl)methyl oxazolidin-2-one]	
32 µg/mL (≈ 71.1 µM)	32 µg/mL (≈ 71.1 µM)	Cn1nnc(-c2ccc(-c3ccc(N4C[C@H](COP(=O)(O)O)OC4=O)cc3F)cn2)n1 [Compound 72, mono-[(R)-[3-(4-(2-(2-methyltetrazol-5-yl)pyridin-5-yl)-3-fluorophenyl)-2-oxo-5-oxazolidinyl]methyl]phosphate]	
32 µg/mL (≈ 71.1 µM)	32 µg/mL (≈ 71.1 µM)	Cn1nnnc1-c1ccc(-c2ccc(N3C[C@H](COP(=O)(O)O)OC3=O)cc2F)cn1 [Compound 73, mono-[(R)-[3-(4-(2-(1-methyltetrazol-5-yl)pyridin-5-yl)-3-fluorophenyl)-2-oxo-5-oxazolidinyl]methyl]phosphate]	

SMILES	MIC50 [1]	MIC50 [2]	also measured
N#CCc1csc(-c2ccc(-c3ccc(N4C[C@H](COC(=O)CN)OC4=O)cc3F)cc2)n1 [Compound 34, (R)-3-(4-(4-(4-cyanomethylthiazol-2-yl)phenyl)-3-fluorophenyl)-5-glycyloxymethyl oxazolidin-2-one trifluoroacetic acid]	1 µg/mL (≈ 2.14 µM)	1 µg/mL (≈ 2.14 µM)	
NCC(=O)OC[C@H]1CN(c2ccc(-c3ccc(-n4nccn4)nc3)c(F)c2)C(=O)O1 [Compound 35, (R)-3-(4-(2-([1,2,3]triazol-2-yl)pyridin-5-yl)-3-fluorophenyl)-5-glycyloxymethyl oxazolidin-2-one trifluoroacetic acid]	1 µg/mL (≈ 2.42 µM)	1 µg/mL (≈ 2.42 µM)	
NCC(=O)OCc1csc(-c2ccc(-c3ccc(N4C[C@H](Cn5ccnn5)OC4=O)cc3F)cc2)n1 [Compound 37, (R)-3-(4-(4-(4-glycyloxymethylthiazol-2-yl)phenyl)-3-fluorophenyl)-5-([1,2,3]triazol-1-yl)methyl oxazolidin-2-one trifluoroacetic acid]	0.5 µg/mL (≈ 0.983 µM)	0.5 µg/mL (≈ 0.983 µM)	
Cl.Cn1nnnc1-c1ccc(-c2ccc(N3C[C@H](COC(=O)CN)OC3=O)cc2F)cn1 [Compound 63, (R)-3-(4-(2-(1-methyltetrazol-5-yl)pyridin-5-yl)-3-fluorophenyl)-5-glycyloxymethyl oxazolidin-2-one hydrochloride]	0.5 µg/mL	0.25 µg/mL	
C[C@H](N)C(=O)OC[C@H]1CN(c2ccc(-c3ccc(-c4nnnn4C)nc3)c(F)c2)C(=O)O1.Cl [Compound 65, (R)-3-(4-(2-(1-methyltetrazol-5-yl)pyridin-5-yl)-3-fluorophenyl)-5-(L-alanyloxy)methyl oxazolidin-2-one hydrochloride]	0.5 µg/mL	0.25 µg/mL	
CC(C)[C@H](N)C(=O)OC[C@H]1CN(c2ccc(-c3ccc(-c4nnnn4C)nc3)c(F)c2)C(=O)O1.Cl [Compound 67, (R)-3-(4-(2-(1-methyltetrazol-5-yl)pyridin-5-yl)-3-fluorophenyl)-5-(L-valyloxy)methyl oxazolidin-2-one hydrochloride]	0.5 µg/mL	0.25 µg/mL	
Cl.Cn1nnnc1-c1ccc(-c2ccc(N3C[C@H](COC(=O)CCN)OC3=O)cc2F)cn1 [Compound 69, (R)-3-(4-(2-(1-methyltetrazol-5-yl)pyridin-5-yl)-3-fluorophenyl)-5-(β-alanyloxy)methyl oxazolidin-2-one hydrochloride]	0.5 µg/mL	0.25 µg/mL	
CC(=O)NC[C@H]1CN(c2ccc(N3CCOCC3)c(F)c2)C(=O)O1 [Zyvox, reference compound]	2 µg/mL (≈ 5.93 µM)	2 µg/mL (≈ 5.93 µM)	
